From ChEMBL document CHEMBL1130442, “Tetrazole is an effective Sn-3 phosphate replacement in substrate analog inhibitors of 14 kDa phospholipase A2” (Bioorg Med Chem Lett, 1997)

How the values were obtained:
Monocyte [1] = test: Compound was tested for inhibition of LTC4 release in the human monocytic cell line; NI means no inhibition observed; assay type: functional, cell-based
[2] = molecular target: T1, Polyunsaturated fatty acid 5-lipoxygenase (Homo sapiens) (UniProt P09917); test: Compound was tested for inhibition of 5-lipoxygenase at 50 uM; NI means no inhibition was observed
T1 sequence (whole entry): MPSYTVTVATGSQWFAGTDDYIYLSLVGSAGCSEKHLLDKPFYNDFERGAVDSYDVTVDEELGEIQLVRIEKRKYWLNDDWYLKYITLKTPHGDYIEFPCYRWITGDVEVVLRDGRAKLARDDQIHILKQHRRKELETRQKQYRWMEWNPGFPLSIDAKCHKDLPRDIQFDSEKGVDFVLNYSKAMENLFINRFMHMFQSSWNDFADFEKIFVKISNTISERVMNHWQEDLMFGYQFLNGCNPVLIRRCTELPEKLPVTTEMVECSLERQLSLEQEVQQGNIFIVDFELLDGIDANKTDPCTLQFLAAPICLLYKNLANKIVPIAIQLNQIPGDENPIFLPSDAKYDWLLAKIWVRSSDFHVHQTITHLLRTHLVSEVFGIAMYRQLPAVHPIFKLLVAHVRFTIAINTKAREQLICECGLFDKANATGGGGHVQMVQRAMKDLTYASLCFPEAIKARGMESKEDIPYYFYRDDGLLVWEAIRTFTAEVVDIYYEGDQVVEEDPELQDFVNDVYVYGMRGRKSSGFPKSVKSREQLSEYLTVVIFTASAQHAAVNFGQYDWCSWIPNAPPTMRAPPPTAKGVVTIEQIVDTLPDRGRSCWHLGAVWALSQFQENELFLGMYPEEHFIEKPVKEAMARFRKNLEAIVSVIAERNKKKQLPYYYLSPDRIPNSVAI

Monocyte [3] = test: Compound was tested for inhibition of LTC4 release in the human monocytic cell line at 30 uM; assay type: functional

Structure (SMILES)	inhibition (Monocyte [1])	inhibition [2]	inhibition at 30 µM (Monocyte [3])
CCCCCCCCCCCCC(=O)NC(COCCC)COP(=O)(O)OCCO (centres undefined)	No inhibition		
CCCCCCCCOC[C@H](COP(=O)(O)OCCN)OP(=O)(O)CCCCCCC	No inhibition		
CCCCCCCCCCCCCCCCCCOCC(CCc1nnn[nH]1)NC(C)=O (centres undefined)		No inhibition	75%
